Experimental data as given in ChEMBL document CHEMBL1201862, “PubChem BioAssay data set” (2004).
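These data come from cells grown in 96-well plates and exposed to compound for 48 hours at five concentrations. The concentration for 50% growth inhibition is given as GI50.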 The source made the active and inactive calls. No stated cut-off is given here; in the data, active = GI50 up to about 1.1 µM and inactive = higher.

Experiments:
Assay in all cases: NCI-60 cell line screen, 48 h
HOP-62 = system: HOP-62
RXF 393 = system: RXF 393
COLO 205 = system: COLO 205
PC-3 = system: PC-3
NCI-H23 = system: NCI-H23
A549 = system: A549
OVCAR-4 = system: OVCAR-4
MCF7 = system: MCF7
A498 = system: A498
SNB-19 = system: SNB-19
SF-268 = system: SF-268
HT-29 = system: HT-29
SF-295 = system: SF-295
HCT-15 = system: HCT-15
OVCAR-5 = system: OVCAR-5
HCT-116 = system: HCT-116
ACHN = system: ACHN
LOX IMVI = system: LOX IMVI
SR = system: SR
HCC 2998 = system: HCC 2998

Structure (SMILES)	GI50 (HOP-62)	GI50 (RXF 393)	GI50 (COLO 205)	GI50 (PC-3)	GI50 (NCI-H23)	GI50 (A549)	GI50 (OVCAR-4)	GI50 (MCF7)	GI50 (A498)	GI50 (SNB-19)	GI50 (SF-268)	GI50 (HT-29)	GI50 (SF-295)	GI50 (HCT-15)	GI50 (OVCAR-5)	GI50 (HCT-116)	GI50 (ACHN)	GI50 (LOX IMVI)	GI50 (SR)	GI50 (HCC 2998)
CSc1cccc(NC(=O)OC2CCCCCCCCCCC2)c1	18.8 µM (inactive)	18.8 µM (inactive)	14.5 µM (inactive)	31 µM (inactive)	24.4 µM (inactive)	26.9 µM (inactive)	10.4 µM (inactive)	20.6 µM (inactive)	21.7 µM (inactive)	37.5 µM (inactive)	29.8 µM (inactive)	16.6 µM (inactive)	11.9 µM (inactive)	28.8 µM	30.3 µM (inactive)	15.1 µM (inactive)	27.7 µM (inactive)	18 µM (inactive)	26.9 µM (inactive)	–
Cn1c(=O)c2c(ncn2CN2CCN(Cn3cnc4c3c(=O)n(C)c(=O)n4C)CC2)n(C)c1=O	> 100 µM (inactive)	20.2 µM (inactive)	39.4 µM (inactive)	53.5 µM (inactive)	65.9 µM (inactive)	34.2 µM (inactive)	> 100 µM (inactive)	16.9 µM (inactive)	> 100 µM (inactive)	> 100 µM (inactive)	50.9 µM (inactive)	26.2 µM (inactive)	> 100 µM (inactive)	27.6 µM	> 100 µM (inactive)	16.9 µM (inactive)	27 µM (inactive)	24.2 µM (inactive)	28.6 µM (inactive)	–
CCCCN(CCCC)CCC(O)c1cc2c(Cl)cc(Cl)cc2c2cc(C(F)(F)F)ccc12 (configuration not stated)	10 µM (inactive)	–	10.8 µM (inactive)	10.1 µM (inactive)	12.4 µM (inactive)	–	4.78 µM (inactive)	10.2 µM (inactive)	3.59 µM (inactive)	19.1 µM (inactive)	11.7 µM (inactive)	13.6 µM (inactive)	12.4 µM (inactive)	5.4 µM	12.9 µM (inactive)	12.2 µM (inactive)	12 µM (inactive)	6.52 µM (inactive)	10.3 µM (inactive)	11.7 µM (inactive)
N#C/C(C(=O)Nc1ccc(Cl)cc1)=C(/N)N1CCCC1	> 100 µM (inactive)	–	> 100 µM (inactive)	> 100 µM (inactive)	> 100 µM (inactive)	> 100 µM (inactive)	–	> 100 µM (inactive)	> 100 µM (inactive)	> 100 µM (inactive)	–	–	> 100 µM (inactive)	> 100 µM	> 100 µM (inactive)	> 100 µM (inactive)	> 100 µM (inactive)	> 100 µM (inactive)	> 100 µM (inactive)	> 100 µM (inactive)
C[C@@H]1CC[C@@]2(OC1)O[C@H]1C[C@H]3[C@@H]4CC[C@H]5C[C@@H](OC6OC(CO)C(OC7OC(CO)C(O)C(OC8OCC(O)C(O)C8O)C7OC7OC(CO)C(O)C(O)C7O)C(O)C6O)[C@H](O)C[C@]5(C)[C@H]4CC[C@]3(C)[C@H]1[C@@H]2C (some centres not stated)	1.42 µM (inactive)	9.98 µM (inactive)	2.46 µM (inactive)	3.15 µM (inactive)	2.11 µM (inactive)	0.855 µM (active)	1.95 µM (inactive)	0.804 µM (active)	7.89 µM (inactive)	10.1 µM (inactive)	7.71 µM (inactive)	1.75 µM (inactive)	3.89 µM (inactive)	3.4 µM	4.76 µM (inactive)	3.88 µM (inactive)	2.75 µM (inactive)	1.39 µM (inactive)	14.3 µM (inactive)	12.3 µM (inactive)
